Assay results reported in PubChem BioAssay (NCI).
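Compound exposure: 48 hours, 5 concentrations, 96-well plates. TGI marks complete inhibition of growth.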

Tests used:
Test in all cases: DTP human tumour cell line panel, 48 h
HL-60(TB) leukemia = tested on: HL-60(TB) leukemia
HOP-92 NSCLC = tested on: HOP-92 NSCLC
NCI-H23 lung = tested on: NCI-H23 lung
OVCAR-3 ovarian = tested on: OVCAR-3 ovarian
EKVX NSCLC = tested on: EKVX NSCLC
RXF 393 renal = tested on: RXF 393 renal
NCI-H226 lung = tested on: NCI-H226 lung
SN12C renal = tested on: SN12C renal
BT-549 breast = tested on: BT-549 breast
UACC-62 melanoma = tested on: UACC-62 melanoma
SF-268 CNS = tested on: SF-268 CNS
OVCAR-5 ovarian = tested on: OVCAR-5 ovarian
A498 renal = tested on: A498 renal
HOP-62 NSCLC = tested on: HOP-62 NSCLC
786-0 renal = tested on: 786-0 renal
MDA-MB-435 = tested on: MDA-MB-435
CCRF-CEM leukemia = tested on: CCRF-CEM leukemia
SK-OV-3 ovarian = tested on: SK-OV-3 ovarian

SMILES	TGI (HL-60(TB) leukemia)	TGI (HOP-92 NSCLC)	TGI (NCI-H23 lung)	TGI (OVCAR-3 ovarian)	TGI (EKVX NSCLC)	TGI (RXF 393 renal)	TGI (NCI-H226 lung)	TGI (SN12C renal)	TGI (BT-549 breast)	TGI (UACC-62 melanoma)	TGI (SF-268 CNS)	TGI (OVCAR-5 ovarian)	TGI (A498 renal)	TGI (HOP-62 NSCLC)	TGI (786-0 renal)	TGI (MDA-MB-435)	TGI (CCRF-CEM leukemia)	TGI (SK-OV-3 ovarian)
CC[C@@]1(O)C(=O)OCc2c1cc1n(c2=O)Cc2c-1nc1ccccc1c2/C=N\NC(=O)C(C)N (some centres not stated)	> 100 µM	7.7 µM	0.847 µM	> 100 µM	> 100 µM	9.18 µM	2.43 µM	11.1 µM	> 22.4 µM	0.305 µM	> 100 µM	> 100 µM	1.03 µM	16 µM	2 µM	> 100 µM		
Cc1nc(C)c(N2CCN(C#N)CC2)c(=O)[nH]1	> 100 µM	> 100 µM	> 100 µM	> 100 µM	> 100 µM	> 100 µM	> 100 µM	> 100 µM	> 100 µM	> 100 µM	> 100 µM		> 100 µM	> 100 µM	> 100 µM	> 100 µM	> 100 µM	> 100 µM
CCOC(=O)c1cc(-c2ccc(Cl)cc2)c([N+](=O)[O-])n1C	> 10 µM	> 10 µM	> 10 µM	> 10 µM	> 10 µM		> 10 µM	> 10 µM	> 10 µM		> 10 µM	> 10 µM			> 10 µM	> 10 µM	> 10 µM	> 10 µM
COC(=O)C1CCC(=O)N1C(c1ccc2c(c1)OCO2)c1ccc2c(c1)OCO2 (configuration not stated)	> 100 µM	> 100 µM	> 100 µM	> 100 µM	> 100 µM		> 100 µM	> 100 µM	> 100 µM	> 100 µM	> 100 µM	> 100 µM	> 100 µM	> 100 µM	> 100 µM	> 100 µM	> 100 µM	> 100 µM
CN(C(=O)c1cccs1)C(=S)N1CCN(c2ccccc2)CC1	> 100 µM	> 100 µM	> 100 µM	> 100 µM		> 100 µM	> 100 µM	> 100 µM	> 100 µM	> 100 µM	> 100 µM	> 100 µM			> 100 µM	> 100 µM	> 100 µM	
Cc1cc2[nH]c3c(C#N)c(-c4ccccc4)c(CN4CCOCC4)c(=O)n3c2cc1C			> 100 µM	> 100 µM	> 100 µM	> 100 µM	> 100 µM	> 100 µM	> 100 µM		> 100 µM	> 100 µM	> 100 µM	> 100 µM	> 100 µM	> 100 µM	> 100 µM	> 100 µM
COC(=O)c1scc(N)c1-n1ccc(=O)[nH]c1=O	> 100 µM	> 100 µM	> 100 µM		> 100 µM	> 100 µM	> 100 µM	> 100 µM	> 100 µM	> 100 µM	> 100 µM	> 100 µM	> 100 µM		> 100 µM	> 100 µM	> 100 µM	
CCCCCCCCCCCCP(=O)(O)OCC(N)C(=O)O (configuration not stated)	36.1 µM	71.6 µM	> 100 µM	36.5 µM	> 100 µM	> 100 µM	> 100 µM	42.4 µM	> 100 µM		> 100 µM	> 100 µM	70.6 µM	31.6 µM	> 100 µM	34.6 µM		73.3 µM
CCN(CC)C1=Nc2ccccc2-n2c(C)cnc2C1	> 100 µM	> 100 µM	> 100 µM	> 100 µM	> 100 µM	> 100 µM	> 100 µM	> 100 µM	> 100 µM	> 100 µM	> 100 µM	> 100 µM	> 100 µM		> 100 µM	> 100 µM	> 100 µM	> 100 µM
COc1cccc(-n2c(N)c(-c3nc4cc(C(F)(F)F)ccc4s3)c3ccc([N+](=O)[O-])cc3c2=O)c1		> 100 µM	> 100 µM	> 100 µM	> 100 µM		> 100 µM	> 100 µM	> 100 µM	> 100 µM	> 100 µM	> 100 µM	> 100 µM	> 100 µM	> 100 µM	> 100 µM		> 100 µM
CC(NC(=O)C(N)CC(=O)O)NC(=O)N1CCCC1 (configuration not stated)		> 100 µM	> 100 µM	> 100 µM	> 100 µM	> 100 µM	> 100 µM	> 100 µM	> 100 µM	> 100 µM	> 100 µM	> 100 µM	> 100 µM	> 100 µM	> 100 µM	> 100 µM	> 100 µM	> 100 µM
Cc1cc(C#N)c(Nc2c(C)cccc2[N+](=O)[O-])s1		68.3 µM	> 100 µM	> 100 µM	> 100 µM	55.4 µM	> 100 µM	> 100 µM	80.6 µM	> 100 µM	84.9 µM	> 100 µM	> 100 µM	75.2 µM	89.9 µM	> 100 µM	55 µM	> 100 µM
COc1ccc(-c2nnc(CCCCCCCCc3nnc(-c4ccc(OC)cc4)o3)o2)cc1	> 100 µM	> 100 µM	> 100 µM	> 100 µM	> 100 µM		> 100 µM	> 100 µM	59 µM		> 100 µM	> 100 µM	> 100 µM	74.2 µM	> 100 µM	> 100 µM	> 100 µM	> 100 µM
Cc1n[nH]c(=O)n1N1C(=O)c2ccccc2C1=O		> 100 µM	> 100 µM	> 100 µM	> 100 µM		> 100 µM	> 100 µM	> 100 µM	> 100 µM		> 100 µM	> 100 µM	> 100 µM	> 100 µM	> 100 µM	> 100 µM	
CC(=O)OC1COC(Nn2c(=O)[nH]c3ccccc3c2=O)C(OC(C)=O)C1OC(C)=O (configuration not stated)	> 100 µM	> 100 µM	> 100 µM	> 100 µM	> 100 µM		> 100 µM	> 100 µM	> 100 µM	> 100 µM	> 100 µM	> 100 µM	> 100 µM	> 100 µM	> 100 µM	> 100 µM	> 100 µM	> 100 µM
